Reference: the supplement of paper PMC10307832

How the values were obtained:
Assay in all cases: relative viability (nuclei count vs DMSO), 5 days (fraction); higher = more cells survive
[1] = compound: C1/C(=C\C2=CC=CS2)/C(=O)/C(=C/C3=CC=CS3)/C1 + CC(=O)c1c(C)c2cnc(Nc3ccc(N4CCNCC4)cn3)nc2n(C2CCCC2)c1=O [Palbociclib] (partner 0.5 µM)
In short: (§1)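 Cells from lung cancer lines were seeded into 1536-well plates and, one day later, dosed by pin tool. Treatments were either a single drug or a fixed dose of an anchor drug with five library-drug doses (not always all listed) in √10 steps. After 5 days, nuclei were stained in a one-step fixation (final 0.05% Triton X-100, 1% formaldehyde, 1 ug/ml Hoechst) and counted on 4× images, and relative viability is the treated-to-vehicle nuclei ratio, as the median of duplicate plates.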

[2] = compound: C1/C(=C\C2=CC=CS2)/C(=O)/C(=C/C3=CC=CS3)/C1 + CCNC(=O)c1noc(-c2cc(C(C)C)c(O)cc2O)c1-c1ccc(CN2CCOCC2)cc1 [Luminespib] (partner 0.01 µM)
In short: as §1

[3] = compound: C1/C(=C\C2=CC=CS2)/C(=O)/C(=C/C3=CC=CS3)/C1 + O=C(c1cc(Cc2n[nH]c(=O)c3ccccc23)ccc1F)N1CCN(C(=O)C2CC2)CC1 [Olaparib] (partner 8 µM)
In short: as §1

[4] = compound: C1=CC(=CC=C1C2=CC(=C(S2)NC(=O)N)C(=O)N)F [TPCA-1] + O=C(CCCCCCC(=O)Nc1ccccc1)NO [Vorinostat] (partner 1 µM)
In short: as §1

Cell Line UMC-11 has a relative viability ([1]; first compound 0.2 µM) of 0.308, a relative viability ([1]; first compound 0.6325 µM) of 0.367 and a relative viability ([1]; first compound 2 µM) of 0.322. For the same cell line, the relative viability ([1]; first compound 6.325 µM) was 0.334, the relative viability ([1]; first compound 20 µM) was 0.338 and the relative viability ([2]; first compound 0.2 µM) was 1.02. It also gave a relative viability ([2]; first compound 0.6325 µM) of 0.978, a relative viability ([2]; first compound 20 µM) of 1.05 and a relative viability ([3]; first compound 0.2 µM) of 0.462. For the same cell line, the relative viability ([3]; first compound 0.6325 µM) was 0.347, the relative viability ([3]; first compound 2 µM) was 0.405 and the relative viability ([3]; first compound 6.325 µM) was 0.475. It also gave a relative viability ([3]; first compound 20 µM) of 0.391, a relative viability ([4]; first compound 0.04 µM) of 0.447 and a relative viability ([4]; first compound 0.1265 µM) of 0.358. For the same cell line, the relative viability ([4]; first compound 0.4 µM) was 0.368, the relative viability ([4]; first compound 1.265 µM) was 0.378 and the relative viability ([4]; first compound 4 µM) was 0.214.
